# “Also recorded” adds a separate entry of the source.
# What was measured:
# [1] = system: RANTES-induced chemotaxis; test: RANTES-/MIP1α-induced chemotaxis (ChemoTx transwell); assay type: cell-based; details: RANTES per text, 25 ng/ml MIP1α per Fig 2f legend; 5 × 10^4 cells per well; 2 h, 37°C; MTT; triplicate
# Protocol: (§1) Figure 2 Effect of Peptide 3 on gp120:V3 loop peptide binding to cells. (a) The binding of 100 μM N-terminal biotinylated gp120:V3(IIIb) to THP-1 cells was measured in the presence of various concentrations of peptide 3. In each case, the non-specific binding (in the presence of 10 mM unlabelled gp120:V3 loop peptide) has been subtracted. (b) Chemotaxis in response to 100 ng/ml SDF1α was measured in the presence of various concentrations of peptide 3. […] (e) As for (a) except that the effect of Peptide 3 on the binding of gp120:V3(BaL) to THP-1 cells was determined. (f) As for (b) except that the effect of Peptide 3 on chemotaxis induced by 25 ng/ml MIP1α was determined. All binding reactions were performed with 10^6 cells in 100 μl of binding medium at 4°C. Chemotaxis assays were performed with 5 × 10^4 cells per well. Values are mean ± SEM of triplicate determinations.
# Chemotaxis experiments were performed essentially as previously described, using the ChemoTx disposable 96-well transwell migration plates, with PVP-free membrane (6 μm pore size). […] The number of cells which had migrated to the lower compartment was determined using the vital dye MTT and interpolation of a standard curve. Each condition was determined in triplicate, and the number of cells migrating in the absence of chemoattractant was subtracted to determine the chemokine-dependent chemotaxis which was reported.
# [2] = system: SDF-1α induced chemotaxis; test: SDF-1α induced chemotaxis (ChemoTx transwell); assay type: cell-based; details: 100 ng/ml SDF1α; various concentrations of inhibitor in both compartments; 5 × 10^4 cells per well; 2 h, 37°C; MTT; triplicate
# Protocol: as §1, with “In each case, the non-specific binding (in the presence of 10 mM unlabelled gp120:V3 loop peptide) has been subtracted.” left out
# Chemotaxis experiments were performed essentially as previously described, using the ChemoTx disposable 96-well transwell migration plates, with PVP-free membrane (6 μm pore size). Chemoattractant (lower compartment) and cells upper compartment) were suspended in Gey's Balanced salt solution + 1 mg/ml BSA. […] Migration was allowed to proceed for 2 hours at 37°C. […] Each condition was determined in triplicate, and the number of cells migrating in the absence of chemoattractant was subtracted to determine the chemokine-dependent chemotaxis which was reported.
# [3] = system: HIV strain MN; test: HIV (MN) infection of THP-1 cells, p24gag immunofluorescence; assay type: cell-based, HIV-1; details: Peptide 3 100 μM
# Protocol: However, it was possible to assess HIV infectivity of THP-1 cells using high sensitivity immunofluorescent detection of p24^gag. THP-1 cells were differentiated with hydrocortisone and PMA, then treated with TNFα, resulting in adherent monolayers on glass chamber slides. The THP-1 cells were then treated with either Peptide 3 (100 μM), MIP1α (100 ng/ml) or SDF1α (100 ng/ml) as for the Jurkat cells. THP-1 cells were infected with HIV strain MN at a concentration previously validated to produce easily detectable infection and grown for 72 h prior to fixation and staining for p24^gag. In contrast to the findings with HIV strain IIIb infection of Jurkat T cells, Peptide 3 inhibited infection of THP-1 cells by more than 80% (Fig 3c), very similar to the effect of MIP1α.
# THP-1 cells were differentiated prior to infection with hydrocortisone and PMA in 8-well chamber slides. Sixteen hours prior to infection, TNFα was added (100 ng/ml). Twelve hours later, the medium was aspirated and replaced with fresh medium containing the test peptides or chemokines as appropriate. After a further four hours, virus from the frozen stocks was adeed to the cells, which were the processed for immunofluoresence between 28 h and 72 h after infection.
# Jurkat cells following HIV infection were attached to 8-well chamber slides (Becton-Dickinson) by spinning the slides using a plate rotor in a Labofuge centrifuge (Heraeus) at 3,000 × g for 5 minutes. Attached Jurkat cells or THP-1 cells were then fixed by dipping the slides into ice-cold 70% ethanol for 90 seconds. Non-specific binding was blocked by incubation with 3% fatty acid-free BSA in TBS for 1 hour at room temprature. Cells were incubated with the mouse monoclonal anti-HIV-1 p24^gag antibody EH12E1 (ref 38;AIDS Reagent Program, NIBSC) at 10 μg/ml in 3% BSA in TBS at room temperature overnight. Unbound antibody was removed with 3 × 3 min washes in PBS, and bound antibody was then fixed to the slide by incubation with 3.8% phosphate buffered formalin pH7.2 for 10 mins at room temperature, followed by 3 further 3 min washes in PBS. Bound antibody was visualised using donkey anti-mouse IgG FITC conjugate (715-095-150; Jackson Immunoresearch) at 30 μg/ml in 3% BSA/TBS + 1 ng/ml Hoescht 33342 for 6 hours at room temperature. Twelve fields of view (100× magnification) were captured from each well of the chamber slide using an Olympus Provis AX electronic microscope connected to a Power Macintosh 8500, running OpenLab image analysis software (Improvision), under both FITC illumination conditions (NIBA filter block; λex = 470–490 nm, dichroic mirror = 505 nm, λem = 515–550 nm) and UV illumination conditions (Chroma 31000; λex = 340–380 nm, dichroic mirror = 400 nm, λem = 435–485 nm). Images were acquired with a Hamamatsu C4742-05 monochrome digital camera with 10-bit depth in a 1280-1024 pixel field connected to a DIG Snapper frame grabber. The exposure time, amplifier gain and offset values were controlled by the OpenLab software and were held constant throughout the experiment. A background (an image captured without a slide under the objective) was digitally subtracted from every image. A threshold was then applied to each image which was the lowest threhold that detected <1% of the pixels of an image of uninfected cells stained under identical conditions. The number of objects exceeding this threshold in each field of view were counted. […]
sequence,measurement,setting,value
EICADPKQKWVQ [Peptide 3],Effect on RANTES-induced chemotaxis,[1],powerfully inhibited; also recorded: profoundly blocked
same,Effect on SDF-1α induced chemotaxis,[2],powerfully inhibited; also recorded: efficiently blocks
same,Effect on HIV infection of THP-1 cells (in words),"[3]; HIV strain MN, MIP1α 100 ng/ml, SDF1α 100 ng/ml, 72 h, p24gag immunofluorescence",powerfully inhibited; also recorded: blocked
same,Inhibition of infection of THP-1 cells (p24gag),"[3]; HIV strain MN, differentiated THP-1 (hydrocortisone, PMA, TNFα), grown for 72 h prior to fixation, 12 fields of view",more than 80%
same,Inhibition of CCR5 mediated HIV infection of THP-1 cells,"[3]; assayed by immunofluoresence staining, HIV MN, 72 h, p24gag",83 ± 7%
